Values quoted from earlier work as cited in patent US5478816A, “Liquid vitamin formulations containing vitamin D esters” (Bristol-Myers Squibb Company, priority 1993, dated 1995).
Read-outs that look alike come from different tables or passages of the source.

Conditions: cited from earlier work

For `C=C1CC[C@H](O)C/C1=C/C=C1\CCC[C@]2(C)[C@@H]([C@H](C)/C=C/[C@H](C)C(C)C)CC[C@@H]12` [Vitamin D2], the stability (in corn oil, propylene glycol, and milk) is given as “stable” and the stability (in propylene glycol when diluted in water) is given as “deteriorate”.

For vitamin D, the stability (at a mid-pH) is given as “stable”, the stability (in an alkaline medium or in the presence of light and air) is given as “slowly destroyed” and the stability (in an aqueous environment) is given as “unstable”. For the same compound, the stability (in the presence of minerals) was “unstable”.
